Reference: US20250340565A1, “CD73 INHIBITOR COMPOUNDS” (AdoRx Therapeutics Limited, priority 2022, published 2025)
Structures can show the parent of a compound that is named as a salt.

Key:
[1] = target: CD73 activity in U138-MG cells (Homo sapiens (Human), UniProt P21589); assay: U138-MG inhibition assay (inorganic phosphate from AMP, PiColorLock Gold); format: cell-based; details: 100 μM AMP, 30 min pre-incubation, 1 hour at 37° C.
Method: U138-MG cells from ATCC are cultured in DMEM (Gibco 31966) with 10% FBS. Cells are seeded into 96-well culture plates (5,000 cell/well) in 100 μL of media for 24 hr. Cells are washed twice with 200 μL of assay buffer (20 mM HEPES, pH 7.4; 137 mM NaCl; 5.4 mM KCl; 1.3 mM CaCl2; 4.2 mM NaHCO3; 1 mg/mL glucose) to remove residual inorganic phosphate. CD73 inhibitor is added to each well in 100 μl volume and preincubated for 30 mins at 37° C. An equal volume of AMP substrate (Sigma A1572) is added to each well at a final concentration of 100 μM and incubated at 37° C. for 1 hour. Control wells containing cells but lacking added AMP, define the assay signal equivalent to 100% inhibition of CD73 activity. Supernatant is removed for measurement of inorganic phosphate using the PiColorLock Gold kit (Abcam, ab 270004).
The IC50 values of test compounds are determined as the inflection point of the sigmoidal concentration response curve.

[2] = target: CD73 in whole blood (Homo sapiens (Human), UniProt P21589); assay: Whole blood AMP Glo assay; format: cell-based; details: whole blood of healthy volunteers, 10 μM AMP, 30 min pre-incubation, 15 min at 37° C., levamisole 1.5 mM
Sequence of CD73 in whole blood (P21589 27-574): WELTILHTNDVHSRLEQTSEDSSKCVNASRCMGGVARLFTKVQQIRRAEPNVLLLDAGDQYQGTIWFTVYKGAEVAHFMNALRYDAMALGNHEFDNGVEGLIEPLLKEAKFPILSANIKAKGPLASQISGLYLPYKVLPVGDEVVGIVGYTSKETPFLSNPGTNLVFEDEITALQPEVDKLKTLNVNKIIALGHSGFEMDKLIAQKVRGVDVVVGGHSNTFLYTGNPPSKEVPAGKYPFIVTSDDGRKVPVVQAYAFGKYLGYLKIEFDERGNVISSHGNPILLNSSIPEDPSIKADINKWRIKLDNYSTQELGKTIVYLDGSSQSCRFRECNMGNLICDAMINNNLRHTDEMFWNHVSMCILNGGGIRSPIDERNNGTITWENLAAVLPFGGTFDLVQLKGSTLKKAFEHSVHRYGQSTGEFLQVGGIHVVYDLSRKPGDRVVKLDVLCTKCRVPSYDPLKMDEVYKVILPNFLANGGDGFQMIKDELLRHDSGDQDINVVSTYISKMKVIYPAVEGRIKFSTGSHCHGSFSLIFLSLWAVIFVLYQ
Method: Blood is drawn from healthy volunteers by venepuncture and anti-coagulated with Lithium Heparin (10 IU/mi). 150 μl of blood is added to U-bottom polypropylene 96-well assay plates pre-filled with 20 μl of compound dilutions prepared in RPMI also containing the Tissue Non-specific Alkaline Phosphatase inhibitor Levamisole (final assay concentration 1.5 mM). Control wells to define uninhibited CD73 contain DMSO in place of compound. Control wells to define complete stabilization of AMP attributable to CD73 contain LY3475070 (CAS: 2375815-63-5) at 30 μM final assay concentration.
Compounds are pre-incubated with whole blood at 37° C. for 30 minutes. Following this, AMP is added in a 30 μl volume for a final assay concentration of 10 μM, mixed, and the plates are incubated for 15 minutes at 37° C. Final DMSO concentration/well is 0.6% and final volume/well is 200 μL. After incubating with AMP, the plates are placed on ice and then centrifuged at 2000 g for 10 minutes at 4° C. Plasma is removed and then diluted 1:10 with pre-chilled HBSS (Ca2+& Mg2+free) and kept on ice.
The stabilized AMP concentration in diluted plasma is measured using AMP-Glo kit (Promega), in parallel with a standard curve of known AMP concentrations, with a final volume of 40 μl in white flat bottom half-well 96-well plates (Corning). Signal is measured by Luminescence. The IC50 values of test compounds are determined as the inflection point of the sigmoidal concentration response curve.

[3] = target: human (h)CD73 (amino acids Trp27-Lys547) (Homo sapiens, UniProt P21589); assay: CD73 inhibition assay (Malachite Green phosphate detection); format: biochemical; details: 250 pM hCD73, 12.5 μM AMP, 20 min pre-incubation, absorbance 620 nm
Method: Compound inhibition of human (h)CD73 (amino acids Trp27-Lys547, R&D Systems 5795-EN-500) enzymatic activity was tested via the Malachite Green Phosphate Detection Kit (R&D DY996). Experiments were performed in 20 μL Tris buffer (25 mM Tris pH 7.5, 5 mM MgCl2, 0.002% Tween20), with 250 pM of hCD73. Test compounds of interest were prepared in a threefold serial dilution in DMSO and added to the assay to give the appropriate final concentration, with the assay DMSO concentration being 1%. Compounds were pre-incubated for 20 minutes with hCD73 in a 384 well clear plate (Greiner 781101), followed by the addition of adenosine monophosphate (AMP) to 12.5 μM. The enzymatic reaction was carried out for 20 min at room temperature. 5 μL of Malachite kit reagent A was added to stop the reaction (contains 3M H2SO4) and after 10 min, 5 μL of Malachite kit reagent B was added (Malachite Green). After 30 min, absorbance at 620 nm was read on a BMG Pherastar FSX.
Data were normalised to measurements in the absence of competing compound (0% inhibition) and in the presence of 10 μM control compound (100% inhibition).

Sequence of CD73 activity in U138-MG cells (P21589 27-574): as above

SMILES	IC50 [1] [nM]	IC50 [2] [nM]	IC50 [3] [nM]
N#Cc1cnc2sc(-c3c[nH]c(=O)[nH]c3=O)cc2c1N1CCC(OCCN2CCCCC2)C1 (stereo not drawn) [Example 11, 2-(2,4-Dioxo-1H-pyrimidin-5-yl)-4-[3-[2-(1-piperidyl)ethoxy]pyrrolidin-1-yl]thieno[2,3-b]pyridine-5-carbonitrile]	246	686	103
O=c1[nH]cc(-c2cc3c(N4CCC(OCCN5CCCCC5)C4)ccnc3s2)c(=O)[nH]1 (stereo not drawn) [Example 14, 5-[4-[3-[2-(1-Piperidyl)ethoxy]pyrrolidin-1-yl]thieno[2,3-b]pyridin-2-yl]-1H-pyrimidine-2,4-dione]	177	549	62.8
O=c1[nH]cc(-c2nc3c(N4CCC(OCCN5CCCCC5)C4)ncnc3[nH]2)c(=O)[nH]1 (stereo not drawn) [Example 15, 5-[6-[3-[2-(1-Piperidyl)ethoxy]pyrrolidin-1-yl]-9H-purin-8-yl]-1H-pyrimidine-2,4-dione]	65.6	56.5	139
O=c1[nH]cc(-c2cc3nccc(N4CCC(OCCN5CCCCC5)C4)c3s2)c(=O)[nH]1 (stereo not drawn) [Example 16, 5-[7-[3-[2-(1-Piperidyl)ethoxy]pyrrolidin-1-yl]thieno[3,2-b]pyridin-2-yl]-1H-pyrimidine-2,4-dione]	1340	1550	297
O=c1[nH]cc(-c2cc3c(N4CC(OCCN5CCCCC5)C(F)(F)C4)ncnn3c2)c(=O)[nH]1 (stereo not drawn) [Example 17, 5-[4-[3,3-Difluoro-4-[2-(1-piperidyl)ethoxy]pyrrolidin-1-yl]pyrrolo[2,1-f][1,2,4]triazin-6-yl]-1H-pyrimidine-2,4-dione formate salt]	108	119	59.4
O=C1N=CC(c2cc3c(N4CCC(OCCN5CCCCC5)C4)nc(Cl)nn3c2)C(=O)N1 (stereo not drawn) [Example 18, 5-[2-Chloro-4-[3-[2-(1-piperidyl)ethoxy]pyrrolidin-1-yl]pyrrolo[2,1-f][1,2,4]triazin-6-yl]-5H-pyrimidine-2,4-dione]	91.1	118	62.5
O=c1[nH]cc(-c2cc3c(N4CC(F)(F)C5(CCC5)C4)ncnc3o2)c(=O)[nH]1 [Example 19, 5-[4-(8,8-Difluoro-6-azaspiro[3.4]octan-6-yl)furo[2,3-d]pyrimidin-6-yl]-1H-pyrimidine-2,4-dione]	68.7	1240	58.2
O=c1[nH]cc(-c2cc3c(N4CC(F)(F)C5(CCCC5)C4)ncnc3o2)c(=O)[nH]1 [Example 19.1, 5-[4-(4,4-Difluoro-2-azaspiro[4.4]nonan-2-yl)furo[2,3-d]pyrimidin-6-yl]-1H-pyrimidine-2,4-dione]	104	1990	96.2
O=c1[nH]cc(-c2cc3c(N4CC(F)(F)C5(CC5)C4)ncnc3o2)c(=O)[nH]1 [Example 19.3, 5-[4-(7,7-Difluoro-5-azaspiro[2.4]heptan-5-yl)furo[2,3-d]pyrimidin-6-yl]-1H-pyrimidine-2,4-dione]	28.3	652	137

Next, values leading:

IC50 [1] [nM]	IC50 [2] [nM]	IC50 [3] [nM]	SMILES
2.7	0.6	33.7	O=c1[nH]cc(-n2cc3c(N4CCC(OCCN5CCCCC5)C4)ncnc3n2)c(=O)[nH]1 (stereo not drawn) [Example 12, 5-[4-[3-[2-(1-Piperidyl)ethoxy]pyrrolidin-1-yl]pyrazolo[3,4-d]pyrimidin-2-yl]-1H-pyrimidine-2,4-dione hydrochloride]
1.8	0.47	44.8	CC1(C)CN(c2ncnc3nn(-c4c[nH]c(=O)[nH]c4=O)cc23)CC1(F)F [Example 13, 5-[4-(3,3-Difluoro-4,4-dimethyl-pyrrolidin-1-yl)pyrazolo[3,4-d]pyrimidin-2-yl]-1H-pyrimidine-2,4-dione]
2.4	1.15	37.1	O=c1[nH]cc(-n2cc3c(N4CC(F)(F)C5(CC5)C4)ncnc3n2)c(=O)[nH]1 [Example 13.1, 5-[4-(7,7-Difluoro-5-azaspiro[2.4]heptan-5-yl)pyrazolo[3,4-d]pyrimidin-2-yl]-1H-pyrimidine-2,4-dione]
2.1	1.13	60.7	O=c1[nH]cc(-n2cc3c(N4CC(F)(F)C5(CCC5)C4)ncnc3n2)c(=O)[nH]1 [Example 13.2, 5-[4-(8,8-Difluoro-6-azaspiro[3.4]octan-6-yl)pyrazolo[3,4-d]pyrimidin-2-yl]-1H-pyrimidine-2,4-dione]
4.5	3.52	124	O=c1[nH]cc(-n2cc3c(N4CC(F)(F)C5(CCCC5)C4)ncnc3n2)c(=O)[nH]1 [Example 13.3, 5-[4-(4,4-Difluoro-2-azaspiro[4.4]nonan-2-yl)pyrazolo[3,4-d]pyrimidin-2-yl]-1H-pyrimidine-2,4-dione]
35.3	14.1	95	O=c1[nH]cc(-n2cc3c(N4C[C@H]5CCC[C@H]5C4)ncnc3n2)c(=O)[nH]1 [Example 13.4, 5-[4-[(3aR,6aS)-3,3a,4,5,6,6a-Hexahydro-1H-cyclopenta[c]pyrrol-2-yl]pyrazolo[3,4-d]pyrimidin-2-yl]-1H-pyrimidine-2,4-dione]
10.5	2.12	84.7	CCC1(C)CCN(c2ncnc3nn(-c4c[nH]c(=O)[nH]c4=O)cc23)C1 (stereo not drawn) [Example 13.5, 5-[4-(3-Ethyl-3-methyl-pyrrolidin-1-yl)pyrazolo[3,4-d]pyrimidin-2-yl]-1H-pyrimidine-2,4-dione]
8.6	1.19	31.1	CC1(C)CCN(c2ncnc3nn(-c4c[nH]c(=O)[nH]c4=O)cc23)C1 [Example 13.6, 5-[4-(3,3-Dimethylpyrrolidin-1-yl)pyrazolo[3,4-d]pyrimidin-2-yl]-1H-pyrimidine-2,4-dione]
20.9	7.58	73.9	CCC1(CC)CCN(c2ncnc3nn(-c4c[nH]c(=O)[nH]c4=O)cc23)C1 [Example 13.7, 5-[4-(3,3-Diethylpyrrolidin-1-yl)pyrazolo[3,4-d]pyrimidin-2-yl]-1H-pyrimidine-2,4-dione]
12.1	1.5	47.6	O=c1[nH]cc(-n2cc3c(N4CC(F)(F)C(F)(F)C4)ncnc3n2)c(=O)[nH]1 [Example 13.8, 5-[4-(3,3,4,4-Tetrafluoropyrrolidin-1-yl)pyrazolo[3,4-d]pyrimidin-2-yl]-1H-pyrimidine-2,4-dione]
49.2	5.5	303	O=c1[nH]cc(-n2cc3c(N4C[C@H]5COC[C@H]5C4)ncnc3n2)c(=O)[nH]1 [Example 13.9, 5-[4-[(3aR,6aS)-1,3,3a,4,6,6a-Hexahydrofuro[3,4-c]pyrrol-5-yl]pyrazolo[3,4-d]pyrimidin-2-yl]-1H-pyrimidine-2,4-dione]
3.2	1.5	49.2	COC1CN(c2ncnc3nn(-c4c[nH]c(=O)[nH]c4=O)cc23)CC1(F)F (stereo not drawn) [Example 13.11, 5-[4-(3,3-Difluoro-4-methoxy-pyrrolidin-1-yl)pyrazolo[3,4-d]pyrimidin-2-yl]-1H-pyrimidine-2,4-dione]
